Biological target: T1, chimeric human H3 receptor (Homo sapiens, UniProt Q9Y5N1)
T1 construct: rat Galpha-i2 (Gnai2, rat); made in house; host or cells: Sf9 insect cells (baculovirus); P2 membranes
Test: Chimeric human H3 receptor screening GTP binding assay (inhibition of histamine-stimulated GTP-gamma35S binding, Example 8)
Format: biochemical
Details: 1 h; assay described in Example 8; symbol "!" in column headed Ki; read-out: Ki ("!": percent inhibition of agonist-induced GTP-gammaS binding to H3)
How it was run: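 Compound tested at 4 μM against 1 μM histamine stimulation; 125 pM GTP-gamma35S binding measured by filtration and scintillation after 60 min at room temperature. Membranes from Sf9 cells expressing chimeric human H3 plus G-protein subunits, in Tris pH 7.4/NaCl/MgCl2/GDP buffer; values are % inhibition after nonspecific subtraction.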

T1 sequence (Q9Y5N1 with tags, fused parts or gaps): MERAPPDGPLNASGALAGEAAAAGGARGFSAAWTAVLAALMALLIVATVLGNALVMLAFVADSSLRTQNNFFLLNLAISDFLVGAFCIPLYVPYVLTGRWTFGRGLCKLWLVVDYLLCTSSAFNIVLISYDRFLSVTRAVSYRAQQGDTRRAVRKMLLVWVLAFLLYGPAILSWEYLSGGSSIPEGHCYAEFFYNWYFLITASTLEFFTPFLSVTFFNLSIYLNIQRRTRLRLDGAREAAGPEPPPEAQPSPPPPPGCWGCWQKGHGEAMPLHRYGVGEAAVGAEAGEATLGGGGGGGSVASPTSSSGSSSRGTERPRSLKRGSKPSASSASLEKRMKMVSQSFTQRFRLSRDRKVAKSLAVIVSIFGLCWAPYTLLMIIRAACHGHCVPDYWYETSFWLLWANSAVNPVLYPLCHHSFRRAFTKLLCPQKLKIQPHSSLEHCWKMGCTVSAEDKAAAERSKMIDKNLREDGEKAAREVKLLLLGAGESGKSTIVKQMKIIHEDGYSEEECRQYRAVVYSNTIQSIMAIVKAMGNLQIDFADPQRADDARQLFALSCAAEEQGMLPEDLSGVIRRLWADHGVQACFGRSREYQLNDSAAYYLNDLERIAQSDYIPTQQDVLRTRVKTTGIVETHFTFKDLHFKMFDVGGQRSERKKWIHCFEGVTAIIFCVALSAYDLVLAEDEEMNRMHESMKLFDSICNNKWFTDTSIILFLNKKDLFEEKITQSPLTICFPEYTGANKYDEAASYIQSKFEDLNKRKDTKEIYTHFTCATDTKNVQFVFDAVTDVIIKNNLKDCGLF

Row | Compound | inhibition at 4 µM
1 | O=C(c1sccc1Br)N1CCc2cnc(N3CCN(C4CCC4)CC3)nc2CC1 [Compound 450, 7-[(3-bromo-2-thienyl)carbonyl]-2-(4-cyclobutylpiperazin-1-yl)-6,7,8,9-tetrahydro-5H-pyrimido[4,5-d]azepine] | ≥ 90%
2 | COc1ccc(/C=C/C(=O)N2CCc3cnc(N4CCN(C5CCC5)CC4)nc3CC2)cc1 [Compound 558, 2-(4-cyclobutylpiperazin-1-yl)-7-[(2E)-3-(4-methoxyphenyl)prop-2-enoyl]-6,7,8,9-tetrahydro-5H-pyrimido[4,5-d]azepine] | ≥ 90%
3 | Cc1oc(-c2ccccc2)cc1C(=O)N1CCc2cnc(N3CCN(C4CCC4)CC3)nc2CC1 [Compound 469, 2-(4-cyclobutylpiperazin-1-yl)-7-(2-methyl-5-phenyl-3-furoyl)-6,7,8,9-tetrahydro-5H-pyrimido[4,5-d]azepine] | ≥ 90%
4 | Cc1cc(C(=O)N2CCc3cnc(N4CCN(C5CCC5)CC4)nc3CC2)ccc1Cl [Compound 395, 7-(4-chloro-3-methylbenzoyl)-2-(4-cyclobutylpiperazin-1-yl)-6,7,8,9-tetrahydro-5H-pyrimido[4,5-d]azepine] | ≥ 90%
5 | CCSc1ncccc1C(=O)N1CCc2cnc(N3CCN(C4CCC4)CC3)nc2CC1 [Compound 502, 2-(4-cyclobutylpiperazin-1-yl)-7-{[2-(ethylthio)pyridin-3-yl]carbonyl}-6,7,8,9-tetrahydro-5H-pyrimido[4,5-d]azepine] | ≥ 90%
6 | O=C(c1ccccc1Cc1ccccc1)N1CCc2cnc(N3CCN(C4CCC4)CC3)nc2CC1 [Compound 410, 7-(2-benzylbenzoyl)-2-(4-cyclobutylpiperazin-1-yl)-6,7,8,9-tetrahydro-5H-pyrimido[4,5-d]azepine] | ≥ 90%
7 | O=C(c1cccnc1Sc1ccccc1)N1CCc2cnc(N3CCN(C4CCC4)CC3)nc2CC1 [Compound 496, 2-(4-cyclobutylpiperazin-1-yl)-7-{[2-(phenylthio)pyridin-3-yl]carbonyl}-6,7,8,9-tetrahydro-5H-pyrimido[4,5-d]azepine] | ≥ 90%
8 | O=C(c1cnn(-c2ccc(Cl)cc2)c1C(F)(F)F)N1CCc2cnc(N3CCN(C4CCC4)CC3)nc2CC1 [Compound 507, 7-{[1-(4-chlorophenyl)-5-(trifluoromethyl)-1H-pyrazol-4-yl]carbonyl}-2-(4-cyclobutylpiperazin-1-yl)-6,7,8,9-tetrahydro-5H-pyrimido[4,5-d]azepine] | ≥ 90%
9 | COc1cc(Cl)ccc1C(=O)N1CCc2cnc(N3CCN(C4CCC4)CC3)nc2CC1 [Compound 421, 7-(4-chloro-2-methoxybenzoyl)-2-(4-cyclobutylpiperazin-1-yl)-6,7,8,9-tetrahydro-5H-pyrimido[4,5-d]azepine] | ≥ 90%
10 | CC(C)(C)c1ccc(Oc2ncccc2C(=O)N2CCc3cnc(N4CCN(C5CCC5)CC4)nc3CC2)cc1 [Compound 494, 7-{[2-(4-tert-butylphenoxy)pyridin-3-yl]carbonyl}-2-(4-cyclobutylpiperazin-1-yl)-6,7,8,9-tetrahydro-5H-pyrimido[4,5-d]azepine] | ≥ 90%
11 | O=C(c1cccc(C(F)(F)F)c1F)N1CCc2cnc(N3CCN(C4CCC4)CC3)nc2CC1 [Compound 399, 2-(4-cyclobutylpiperazin-1-yl)-7-[2-fluoro-3-(trifluoromethyl)benzoyl]-6,7,8,9-tetrahydro-5H-pyrimido[4,5-d]azepine] | ≥ 90%
12 | O=C(c1sc2ccccc2c1Cl)N1CCc2cnc(N3CCN(C4CCC4)CC3)nc2CC1 [Compound 457, 7-[(3-chloro-1-benzothien-2-yl)carbonyl]-2-(4-cyclobutylpiperazin-1-yl)-6,7,8,9-tetrahydro-5H-pyrimido[4,5-d]azepine] | ≥ 90%

Same assay, conditions: 1 h; assay of Example 8; symbol "!" in column headed Ki; read-out: percent inhibition of agonist-induced GTP-gammaS binding to H3

Row | Compound | inhibition at 4 µM
13 | COc1ccccc1C(=O)N1CCc2cnc(N3CCN(C4CCC4)CC3)nc2CC1 [Compound 192, 2-(4-cyclobutylpiperazin-1-yl)-7-(2-methoxybenzoyl)-6,7,8,9-tetrahydro-5H-pyrimido[4,5-d]azepine] | ≥ 90%
14 | O=C(Cc1ccc(OC(F)(F)F)cc1)N1CCc2cnc(N3CCN(C4CCC4)CC3)nc2CC1 [Compound 278, 2-(4-cyclobutylpiperazin-1-yl)-7-{[4-(trifluoromethoxy)phenyl]acetyl}-6,7,8,9-tetrahydro-5H-pyrimido[4,5-d]azepine] | ≥ 90%
15 | O=C(c1ccc2c(c1)CCO2)N1CCc2cnc(N3CCN(C4CCC4)CC3)nc2CC1 [Compound 375, 2-(4-cyclobutylpiperazin-1-yl)-7-(2,3-dihydro-1-benzofuran-5-ylcarbonyl)-6,7,8,9-tetrahydro-5H-pyrimido[4,5-d]azepine] | ≥ 90%
16 | O=C(C1CCCCCC1)N1CCc2cnc(N3CCN(C4CCC4)CC3)nc2CC1 [Compound 219, 2-(4-cyclobutylpiperazin-1-yl)-7-(cycloheptylcarbonyl)-6,7,8,9-tetrahydro-5H-pyrimido[4,5-d]azepine] | ≥ 90%
17 | Cc1ccc(OCC(=O)N2CCc3cnc(N4CCN(C5CCC5)CC4)nc3CC2)c(C)c1 [Compound 333, 2-(4-cyclobutylpiperazin-1-yl)-7-[(2,4-dimethylphenoxy)acetyl]-6,7,8,9-tetrahydro-5H-pyrimido[4,5-d]azepine] | ≥ 90%
18 | Cc1ccccc1OCC(=O)N1CCc2cnc(N3CCN(C4CCC4)CC3)nc2CC1 [Compound 321, 2-(4-cyclobutylpiperazin-1-yl)-7-[(2-methylphenoxy)acetyl]-6,7,8,9-tetrahydro-5H-pyrimido[4,5-d]azepine] | ≥ 90%
19 | CCC(=O)N1CCc2cnc(N3CCN(C4CCC4)CC3)nc2CC1 [Compound 184, 2-(4-cyclobutylpiperazin-1-yl)-7-propionyl-6,7,8,9-tetrahydro-5H-pyrimido[4,5-d]azepine] | ≥ 90%

Same assay, conditions: symbol ! in Ki; test compound 4 μM, 1 μM histamine; read-out: percent inhibition of agonist-induced GTP-gammaS binding to H3

Row | Compound | inhibition at 4 µM
20 | CC(c1ccc(Cl)cc1Cl)N1CCc2c(ncnc2N2CCN(C3CCC3)CC2)C1 (stereo not drawn) [Compound 136, 4-(4-cyclobutylpiperazin-1-yl)-7-[1-(2,4-dichlorophenyl)ethyl]-5,6,7,8-tetrahydropyrido[3,4-d]pyrimidine] | ≥ 90%
21 | CC(C)CCN1CCc2ncnc(N3CCN(C4CCC4)CC3)c2CC1 [Compound 161, 4-(4-cyclobutylpiperazin-1-yl)-7-(3-methylbutyl)-6,7,8,9-tetrahydro-5H-pyrimido[4,5-d]azepine] | ≥ 90%
22 | c1ccc2ncc(CN3CCc4c(ncnc4N4CCN(C5CCC5)CC4)C3)cc2c1 [Compound 73, 4-(4-cyclobutylpiperazin-1-yl)-7-(quinolin-3-ylmethyl)-5,6,7,8-tetrahydropyrido[3,4-d]pyrimidine] | ≥ 90%
23 | Cc1c(F)cccc1CN1CCc2nc(N3CCN(C4CCC4)CC3)ncc2C1 [Compound 644, 2-(4-cyclobutylpiperazin-1-yl)-6-(3-fluoro-2-methylbenzyl)-5,6,7,8-tetrahydropyrido[4,3-d]pyrimidine] | ≥ 90%
24 | Cc1cccc(CN2CCc3nc(N4CCN(C5CCC5)CC4)ncc3C2)n1 [Compound 619, 2-(4-cyclobutylpiperazin-1-yl)-6-[(6-methylpyridin-2-yl)methyl]-5,6,7,8-tetrahydropyrido[4,3-d]pyrimidine] | ≥ 90%
25 | c1ccc(CN2CCc3c(ncnc3N3CCN(C4CCCC4)CC3)C2)cc1 [Compound 16, 7-benzyl-4-(4-cyclopentylpiperazin-1-yl)-5,6,7,8-tetrahydropyrido[3,4-d]pyrimidine] | ≥ 90%
26 | c1ccc2nc(CN3CCc4c(ncnc4N4CCN(C5CCC5)CC4)C3)ccc2c1 [Compound 93, 4-(4-cyclobutylpiperazin-1-yl)-7-(quinolin-2-ylmethyl)-5,6,7,8-tetrahydropyrido[3,4-d]pyrimidine] | ≥ 90%
27 | c1nc2c(c(N3CCN(C4CCC4)CC3)n1)CCN(Cc1ccc3c(c1)OCCO3)CC2 [Compound 173, 4-(4-cyclobutylpiperazin-1-yl)-7-(2,3-dihydro-1,4-benzodioxin-6-ylmethyl)-6,7,8,9-tetrahydro-5H-pyrimido[4,5-d]azepine] | ≥ 90%
28 | c1ccc(CN2CCc3c(ncnc3N3CCC(N4CCCCCC4)CC3)C2)cc1 [Compound 18, 4-(4-azepan-1-ylpiperidin-1-yl)-7-benzyl-5,6,7,8-tetrahydropyrido[3,4-d]pyrimidine] | ≥ 90%
29 | CC(C)CCN1CCc2nc(N3CCN(C4CCC4)CC3)ncc2C1 [Compound 626, 2-(4-cyclobutylpiperazin-1-yl)-6-(3-methylbutyl)-5,6,7,8-tetrahydropyrido[4,3-d]pyrimidine] | ≥ 90%
30 | Fc1ccccc1CN1CCc2ncnc(N3CCN(C4CCC4)CC3)c2CC1 [Compound 145, 4-(4-cyclobutylpiperazin-1-yl)-7-(2-fluorobenzyl)-6,7,8,9-tetrahydro-5H-pyrimido[4,5-d]azepine] | ≥ 90%
31 | CCN1CCc2c(ncnc2N2CCN(C3CCC3)CC2)C1 [Compound 81, 4-(4-cyclobutylpiperazin-1-yl)-7-ethyl-5,6,7,8-tetrahydropyrido[3,4-d]pyrimidine] | ≥ 90%
32 | CC(C)CCN1CCc2c(ncnc2N2CCN(C3CCC3)CC2)C1 [Compound 82, 4-(4-cyclobutylpiperazin-1-yl)-7-(3-methylbutyl)-5,6,7,8-tetrahydropyrido[3,4-d]pyrimidine] | ≥ 90%
33 | CC(C)CN1CCc2ncnc(N3CCN(C4CCC4)CC3)c2CC1 [Compound 166, 4-(4-cyclobutylpiperazin-1-yl)-7-isobutyl-6,7,8,9-tetrahydro-5H-pyrimido[4,5-d]azepine] | ≥ 90%

Reference: US20080051387A1, “TETRAHYDROPYRIDO[3,4-D]PYRIMIDINES AND RELATED ANALOGUES” (priority 2006, published 2008)
